Patent US5011851A, “Imidazole carboxylic acids and esters and inhibition of blood platelet aggregation therewith” (Bristol-Myers Squibb Co., priority 1990, dated 1991)
Values after ≈ are worked out from the molar mass of the structure shown. Where two headings read alike, the source gives them in different places.

System: ADP-induced aggregation of human platelets
Type: cell-based
Conditions: human platelet rich plasma, vs ADP, read-out: Inhibition of Human Platelet Aggregation IC50 Vs ADP

IC50 (Formula II compounds) [µg/mL]	IC50 (Formula VIII compounds) [µg/mL]	Compound
1.2 (≈ 3.01 µM)		O=C(O)COc1cccc(CCc2nc(-c3ccccc3)c(-c3ccccc3)[nH]2)c1 [Example 2, [3-[2-(4,5-diphenyl-1H-imidazol-2-yl)ethyl]phenoxy]-acetic acid]
2.4 (≈ 5.82 µM)		COC(=O)COc1cccc(CCc2nc(-c3ccccc3)c(-c3ccccc3)[nH]2)c1 [Example 1, Methyl [3-[2-(4,5-diphenyl-1H-imidazol-2-yl)ethyl]phenoxy]-acetate]
	0.41 (≈ 0.984 µM)	O=C(O)COc1cccc(CSc2nc(-c3ccccc3)c(-c3ccccc3)[nH]2)c1 [Example 5, [3-[[(4,5-Diphenyl-1H-imidazol-2-yl)thio]methyl]phenoxy]acetic Acid]
	0.42 (≈ 0.976 µM)	COC(=O)COc1cccc(CSc2nc(-c3ccccc3)c(-c3ccccc3)[nH]2)c1 [Example 4, Methyl [3-[[(4,5-diphenyl-1H-imidazol-2-yl)thio]methyl]phenoxy]acetate]
